Results taken from ChEMBL document CHEMBL1201862, “PubChem BioAssay data set” (2004).
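Assay format: 96-well plates, 48-hour exposure. GI50 = concentration required for 50% inhibition of growth.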 The source made the active and inactive calls. No stated cut-off is given here; in the data, active = GI50 up to about 1.1 µM and inactive = higher.

Columns and labels:
Assay in all cases: DTP human tumour cell line panel, 48 h
[1] = tested on: 786-0
[2] = tested on: A498
[3] = tested on: A549
[4] = tested on: ACHN
[5] = tested on: BT-549
[6] = tested on: CAKI-1
[7] = tested on: CCRF-CEM
[8] = tested on: COLO 205
[9] = tested on: DU-145
[10] = tested on: EKVX
[11] = tested on: HCC 2998
[12] = tested on: HCT-116
[13] = tested on: HCT-15
[14] = tested on: HL-60
[15] = tested on: HOP-62
[16] = tested on: HOP-92
[17] = tested on: IGROV-1
[18] = tested on: K562
[19] = tested on: KM12
[20] = tested on: LOX IMVI
[21] = tested on: M14
[22] = tested on: MCF7
[23] = tested on: MDA-MB-231
[24] = tested on: MDA-MB-435
[25] = tested on: MDA-N
[26] = tested on: MOLT-4
[27] = tested on: NCI-H226
[28] = tested on: NCI-H23
[29] = tested on: NCI-H522
[30] = tested on: NCI/ADR-RES
[31] = tested on: OVCAR-3
[32] = tested on: OVCAR-4
[33] = tested on: OVCAR-5
[34] = tested on: OVCAR-8
[35] = tested on: PC-3
[36] = tested on: RPMI-8226
[37] = tested on: SF-268
[38] = tested on: SF-295
[39] = tested on: SF-539
[40] = tested on: SK-MEL-28
[41] = tested on: SK-MEL-2
[42] = tested on: SK-MEL-5
[43] = tested on: SK-OV-3
[44] = tested on: SN12C
[45] = tested on: SNB-19
[46] = tested on: SW-620
[47] = tested on: T47D
[48] = tested on: TK-10
[49] = tested on: U-251
[50] = tested on: UACC-257
[51] = tested on: UACC-62
[52] = tested on: UO-31
[53] = tested on: HT-29
[54] = tested on: Malme-3M
[55] = tested on: NCI-H460
[56] = tested on: SNB-75
[57] = tested on: SR

## CC(C)(C)OC(=O)Nc1cc(-c2ccccc2)co1
[1]
  GI50: > 100 µM (inactive)
[2]
  GI50: > 100 µM (inactive)
[3]
  GI50: 78.2 µM (inactive)
[4]
  GI50: > 100 µM (inactive)
[5]
  GI50: 79.8 µM (inactive)
[6]
  GI50: > 100 µM (inactive)
[7]
  GI50: 51.8 µM (inactive)
[8]
  GI50: > 100 µM (inactive)
[9]
  GI50: > 100 µM (inactive)
[10]
  GI50: > 100 µM (inactive)
[11]
  GI50: > 100 µM (inactive)
[12]
  GI50: 83.9 µM (inactive)
[13]
  GI50: > 100 µM
[14]
  GI50: > 100 µM (inactive)
[15]
  GI50: > 100 µM (inactive)
[16]
  GI50: 25.8 µM (inactive)
[17]
  GI50: 87.5 µM (inactive)
[18]
  GI50: 67 µM (inactive)
[19]
  GI50: > 100 µM (inactive)
[20]
  GI50: > 100 µM (inactive)
[21]
  GI50: > 100 µM (inactive)
[22]
  GI50: 83.8 µM (inactive)
[23]
  GI50: 68.7 µM (inactive)
[24]
  GI50: 94 µM (inactive)
[25]
  GI50: 86.3 µM (inactive)
[26]
  GI50: 33.8 µM (inactive)
[27]
  GI50: > 100 µM (inactive)
[28]
  GI50: > 100 µM (inactive)
[29]
  GI50: 17.3 µM (inactive)
[30]
  GI50: > 100 µM (inactive)
[31]
  GI50: 94.2 µM (inactive)
[32]
  GI50: > 100 µM (inactive)
[33]
  GI50: > 100 µM (inactive)
[34]
  GI50: > 100 µM (inactive)
[35]
  GI50: 50.1 µM (inactive)
[36]
  GI50: 41.1 µM (inactive)
[37]
  GI50: 22.7 µM (inactive)
[38]
  GI50: > 100 µM (inactive)
[39]
  GI50: > 100 µM (inactive)
[40]
  GI50: > 100 µM (inactive)
[41]
  GI50: 71.1 µM (inactive)
[42]
  GI50: 96.8 µM (inactive)
[43]
  GI50: > 100 µM (inactive)
[44]
  GI50: 95.9 µM (inactive)
[45]
  GI50: > 100 µM (inactive)
[46]
  GI50: > 100 µM (inactive)
[47]
  GI50: 38.4 µM (inactive)
[48]
  GI50: > 100 µM (inactive)
[49]
  GI50: 54.6 µM (inactive)
[50]
  GI50: > 100 µM (inactive)
[51]
  GI50: > 100 µM (inactive)
[52]
  GI50: > 100 µM (inactive)

## O=C1OS2(OCc3cccc4cccc2c34)c2ccccc21 (stereo not drawn)
[1]
  GI50: > 100 µM (inactive)
[2]
  GI50: > 100 µM (inactive)
[3]
  GI50: > 100 µM (inactive)
[4]
  GI50: > 100 µM (inactive)
[5]
  GI50: > 100 µM (inactive)
[6]
  GI50: > 100 µM (inactive)
[7]
  GI50: 40.3 µM (inactive)
[8]
  GI50: > 100 µM (inactive)
[9]
  GI50: > 100 µM (inactive)
[10]
  GI50: > 100 µM (inactive)
[11]
  GI50: > 100 µM (inactive)
[12]
  GI50: > 100 µM (inactive)
[13]
  GI50: > 100 µM
[14]
  GI50: > 100 µM (inactive)
[15]
  GI50: > 100 µM (inactive)
[16]
  GI50: > 100 µM (inactive)
[53]
  GI50: > 100 µM (inactive)
[17]
  GI50: > 100 µM (inactive)
[18]
  GI50: > 100 µM (inactive)
[19]
  GI50: > 100 µM (inactive)
[20]
  GI50: > 100 µM (inactive)
[21]
  GI50: > 100 µM (inactive)
[22]
  GI50: > 100 µM (inactive)
[23]
  GI50: > 100 µM (inactive)
[24]
  GI50: > 100 µM (inactive)
[25]
  GI50: > 100 µM (inactive)
[26]
  GI50: > 100 µM (inactive)
[54]
  GI50: > 100 µM (inactive)
[27]
  GI50: > 100 µM (inactive)
[28]
  GI50: > 100 µM (inactive)
[55]
  GI50: > 100 µM (inactive)
[29]
  GI50: 50.8 µM (inactive)
[30]
  GI50: > 100 µM (inactive)
[31]
  GI50: > 100 µM (inactive)
[32]
  GI50: > 100 µM (inactive)
[33]
  GI50: > 100 µM (inactive)
[35]
  GI50: > 100 µM (inactive)
[36]
  GI50: > 100 µM (inactive)
[37]
  GI50: > 100 µM (inactive)
[38]
  GI50: > 100 µM (inactive)
[39]
  GI50: > 100 µM (inactive)
[40]
  GI50: > 100 µM (inactive)
[41]
  GI50: > 100 µM (inactive)
[42]
  GI50: > 100 µM (inactive)
[43]
  GI50: > 100 µM (inactive)
[44]
  GI50: > 100 µM (inactive)
[45]
  GI50: > 100 µM (inactive)
[56]
  GI50: > 100 µM (inactive)
[57]
  GI50: > 100 µM (inactive)
[46]
  GI50: > 100 µM (inactive)
[47]
  GI50: > 100 µM (inactive)
[48]
  GI50: > 100 µM (inactive)
[49]
  GI50: > 100 µM (inactive)
[50]
  GI50: > 100 µM (inactive)
[51]
  GI50: > 100 µM (inactive)
[52]
  GI50: > 100 µM (inactive)
